Source: ChEMBL document CHEMBL3600365, “Structural and computational study on inhibitory compounds for endonuclease activity of influenza virus polymerase” (Bioorg Med Chem, 2015)
Calls of active or inactive are those of the source. The rule behind the calls is not given here.

Columns and labels:
[1] = molecular target: Polymerase acidic protein (Influenza A virus (A/Puerto Rico/8/1934(H1N1)), UniProt P03433); assay: Inhibition of Influenza A/Perto Rico/8/34 (PR8) (H1N1) PA N-terminal domain (1 to 197) endonuclease activity expressed in Escherichia coli Rosetta (DE3) using (6-FAM)-AAT CGC AGG CAG CAC TC-(BHQ-1) as substrate measured every 50 secs for 30 mins by FRET assay
[2] = system: unidentified influenza virus; assay: Antiviral activity against Influenza virus infected in MDCK cells assessed as viral RNA content incubated with cells for 30 mins prior to addition of 30 mins preincubated virus-compound mixture for 1 hr followed by 3 times compound washout and again cultured in compound containing virus growth medium for 24 hrs by RT-PCR analysis; format: functional, organism-based
[3] = Cytotoxicity against MDCK cells after 24 hrs by CellTiter 96 AQueous one solution cell proliferation assay; format: cell-based, Canis lupus familiaris; conditions: dog
[4] = molecular target: Polymerase acidic protein (Influenza A virus (A/Puerto Rico/8/1934(H1N1))) (UniProt P03433); assay: Inhibition of Influenza A/Perto Rico/8/34 (PR8) (H1N1) PAN (1 to 197) endonuclease activity expressed in Escherichia coli Rosetta (DE3) using M13mp18 as substrate at 100 uM after 60 mins by agarose gel elctrophoresis
[5] = system: Influenza A virus; assay: Antiviral activity against Influenza A virus (A/PR8/34(H1N1)) infected in MDCK cells assessed as inhibition of viral replication after 24 hrs; format: functional, organism-based; conditions: A/Puerto Rico/8/1934(H1N1)
[6] = molecular target: Polymerase acidic protein (Influenza A virus (A/Puerto Rico/8/1934(H1N1)), UniProt P03433); assay: Inhibition of Influenza A/Puerto Rico/8/34 (H1N1) PA N-terminal domain endonuclease activity expressed in Escherichia coli BL21 (RIL) cells using (6-FAM)TGGCAATATCAGCTCCACA(MGBNFQ) as substrate by fluorescence assay
[7] = system: Influenza A virus; assay: Antiviral activity against Influenza A virus (A/Puerto Rico/8/1934(H1N1)) infected in MDCK cells after 24 hrs by immunofocus assay; format: functional, organism-based

| Compound | IC50 [1] [µM] | EC50 [2] [µM] | CC50 at 24 h [3] [µM] | inhibition [4] | IC50 [5] [µM] | IC50 [6] [µM] | EC50 [7] [µM] |
| --- | --- | --- | --- | --- | --- | --- | --- |
| O=Cc1cc(Cc2ccccc2Cl)cc([N+](=O)[O-])c1O | 63 | 11.5 | 74.1 | Active | – | – | – |
| Oc1ccc(/C=N/Nc2ccc(Cl)cc2)c(O)c1O | 8.3 | 14.4 | > 200 | Active | – | – | – |
| O=C(O)/C(O)=C/C(=O)C1(Cc2ccc(Cl)cc2)CCN(Cc2ccccc2)CC1 | – | – | – | – | 0.35 | – | – |
| O=C(COc1ccc(F)cc1)c1ccc(O)c(O)c1O | 9.7 | 11.8 | > 200 | Active | – | – | – |
| O=c1[nH]c(-c2ccc(F)cc2)c(-c2ccc(-c3nnn[nH]3)cc2)cc1O | – | – | – | – | – | 0.011 | 11 |
